Bridge positions count the residues as written; N and C are the ends. Square brackets hold non-standard residues; d marks the D form. Peptide text beside a SMILES is read from it. * marks the point of attachment. ξ: configuration not given here. Bip = N[C@@H](Cc1ccc(-c2ccccc2)cc1)C(=O)O; Phe(3-Me) = Cc1cccc(C[C@H](N)C(=O)O)c1; hArg = N=C(N)NCCCC[C@H](N)C(=O)O; Cha = N[C@@H](CC1CCCCC1)C(=O)O; Thr(3ξ) = CC(O)[C@H](N)C(=O)O; Carboxymethyl = O=C(O)C*; Orn = NCCC[C@H](N)C(=O)O; Aun = NCCCCCCCCCCC(=O)O; Dab = NCC[C@H](N)C(=O)O; Dap = NC[C@H](N)C(=O)O; AEEA = NCCOCCOCC(=O)O
Target: T1, PD-1/PD-L1 interaction (PE-labeled human PD-L1-Ig binding to Jurkat cell line over-expressing human PD-1) (Homo sapiens, UniProt Q15116)
T1 construct: expressed in transfected cells; host or cells: Jurkat
T1 sequence (Q15116 25-288): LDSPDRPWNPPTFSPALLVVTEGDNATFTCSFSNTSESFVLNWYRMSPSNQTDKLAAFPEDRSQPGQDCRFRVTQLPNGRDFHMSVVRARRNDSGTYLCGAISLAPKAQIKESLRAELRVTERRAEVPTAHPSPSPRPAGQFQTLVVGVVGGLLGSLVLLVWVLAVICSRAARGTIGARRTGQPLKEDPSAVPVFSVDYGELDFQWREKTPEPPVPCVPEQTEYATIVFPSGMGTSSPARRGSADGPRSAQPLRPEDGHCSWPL
Assay: Jurkat-PD-1 Cell Binding High-Content Screening Assay (CBA)
Format: cell-based
Conditions: Jurkat cell line over-expressing human PD-1; PE-labeled PD-L1-Ig 20 nM final; read-out: Jurkat hPD1-PDL1 IC50
Summary of the method: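 Binding of fluorescent PD-L1-Ig (phycoerythrin on Ig tag, 20 nM final, 1 h) measured by high-content imaging of fixed, Hoechst-counterstained Jurkat-hPD-1 cells. Compound added 2 h at 37° C beforehand, in DMEM with 10% fetal calf serum.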

| IC50 | SMILES |
| --- | --- |
| 12.2 nM | Cc1cccc(C[C@@H]2NC(=O)[C@H](CC(=O)O)NC(=O)[C@H](Cc3ccc(OCC(=O)O)cc3)NC(=O)[C@H](CCCCNC(=N)N)NC(=O)CSC[C@@H](C(=O)N[C@@H](CCN)C(=O)NCCCCCCCCCCC(=O)O)NC(=O)[C@H](CCCCN)NC(=O)[C@H](C(C)C)NC(=O)[C@H](CC3CCCCC3)NC(=O)[C@H](CCN)NC(=O)[C@@H](CC(C)C)NC(=O)[C@H](CCCN)NC(=O)[C@H](C(C)C)NC(=O)[C@H](Cc3ccc(-c4ccccc4)cc3)NC(=O)[C@H](C(C)C)NC2=O)c1 [Compound 3260] ({CH2CO}-[hArg]Y(Carboxymethyl)D[Phe(3-Me)]V[Bip]V[Orn][dL][Dab][Cha]VKC[Dab][Aun]-OH; thioether N-14) |
| 6.7 nM | CC(C)C[C@H]1NC(=O)[C@H](CCCN)NC(=O)[C@H](C(C)C)NC(=O)[C@H](Cc2ccc(-c3ccccc3)cc2)NC(=O)[C@H](C(C)C)NC(=O)[C@H](Cc2c[nH]c3ccccc23)NC(=O)[C@H](CC(=O)O)NC(=O)[C@H](Cc2ccc(OCC(=O)O)cc2)NC(=O)[C@H](CCCCNC(=N)N)NC(=O)CSC[C@@H](C(=O)NCCOCCOCC(=O)NCCCCCCCCCCC(=O)O)NC(=O)[C@H](CCCN)NC(=O)[C@H](C(C)C)NC(=O)[C@H](CC2CCCCC2)NC(=O)[C@H](CCN)NC1=O [Compound 3262] ({CH2CO}-[hArg]Y(Carboxymethyl)DWV[Bip]V[Orn][dL][Dab][Cha]V[Orn]C[AEEA][Aun]-OH; thioether N-14) |
| 55.3 nM | CC(C)C[C@H]1NC(=O)[C@H](CCCN)NC(=O)[C@H](C(C)C)NC(=O)[C@H](Cc2ccc(-c3ccccc3)cc2)NC(=O)[C@H](C(C)C)NC(=O)[C@H](Cc2c[nH]c3ccccc23)NC(=O)[C@H](CC(=O)O)NC(=O)[C@H](Cc2c[nH]cn2)NC(=O)[C@H](CCCCNC(=N)N)NC(=O)CSC[C@@H](C(=O)N[C@@H](CCN)C(=O)NCCCCCCCCCCC(=O)O)NC(=O)[C@H](CCCN)NC(=O)[C@H](C(C)C)NC(=O)[C@H](CC2CCCCC2)NC(=O)[C@H](CCN)NC1=O [Compound 3263] ({CH2CO}-[hArg]HDWV[Bip]V[Orn][dL][Dab][Cha]V[Orn]C[Dab][Aun]-OH; thioether N-14) |
| 12.6 nM | Cc1cccc(C[C@@H]2NC(=O)[C@H](CC(=O)O)NC(=O)[C@H](Cc3c[nH]cn3)NC(=O)[C@H](CCCCNC(=N)N)NC(=O)CSC[C@@H](C(=O)NCCOCCOCC(=O)NCCCCCCCCCCC(=O)O)NC(=O)[C@H](CCCN)NC(=O)[C@H](C(C)C)NC(=O)[C@H](CC3CCCCC3)NC(=O)[C@H](CCN)NC(=O)[C@@H](CC(C)C)NC(=O)[C@H](CCCN)NC(=O)[C@H](C(C)C)NC(=O)[C@H](Cc3ccc(-c4ccccc4)cc3)NC(=O)[C@H](C(C)C)NC2=O)c1 [Compound 3264] ({CH2CO}-[hArg]HD[Phe(3-Me)]V[Bip]V[Orn][dL][Dab][Cha]V[Orn]C[AEEA][Aun]-OH; thioether N-14) |
| 7.2 nM | CC(C)C[C@H]1NC(=O)[C@H](CCN)NC(=O)[C@H](C(C)C)NC(=O)[C@H](Cc2ccc(-c3ccccc3)cc2)NC(=O)[C@H](C(C)C)NC(=O)[C@H](Cc2c[nH]c3ccccc23)NC(=O)[C@H](CC(=O)O)NC(=O)[C@H](Cc2ccc(OCC(=O)O)cc2)NC(=O)[C@H](CCCCNC(=N)N)NC(=O)CSC[C@@H](C(=O)NCCOCCOCC(=O)NCCCCCCCCCCC(=O)O)NC(=O)[C@H](CCCN)NC(=O)[C@H](C(C)C)NC(=O)[C@H](CC2CCCCC2)NC(=O)[C@H](CCN)NC1=O [Compound 3265] ({CH2CO}-[hArg]Y(Carboxymethyl)DWV[Bip]V[Dab][dL][Dab][Cha]V[Orn]C[AEEA][Aun]-OH; thioether N-14) |
| 9.2 nM | CC(C)C[C@H]1NC(=O)[C@H](CN)NC(=O)[C@H](C(C)C)NC(=O)[C@H](Cc2ccc(-c3ccccc3)cc2)NC(=O)[C@H](C(C)C)NC(=O)[C@H](Cc2c[nH]c3ccccc23)NC(=O)[C@H](CC(=O)O)NC(=O)[C@H](Cc2ccc(OCC(=O)O)cc2)NC(=O)[C@H](CCCCNC(=N)N)NC(=O)CSC[C@@H](C(=O)NCCOCCOCC(=O)NCCCCCCCCCCC(=O)O)NC(=O)[C@H](CCCCN)NC(=O)[C@H](C(C)C)NC(=O)[C@H](CC2CCCCC2)NC(=O)[C@H](CCN)NC1=O [Compound 3266] ({CH2CO}-[hArg]Y(Carboxymethyl)DWV[Bip]V[Dap][dL][Dab][Cha]VKC[AEEA][Aun]-OH; thioether N-14) |
| 16.3 nM | CC(C)C[C@H]1NC(=O)[C@H](CCCN)NC(=O)[C@H](C(C)C)NC(=O)[C@H](Cc2ccc(-c3ccccc3)cc2)NC(=O)[C@H](C(C)C)NC(=O)[C@H](Cc2c[nH]c3ccccc23)NC(=O)[C@H](CC(=O)O)NC(=O)[C@H](Cc2ccc(OCC(=O)O)cc2)NC(=O)[C@H](CCCCNC(=N)N)NC(=O)CSC[C@@H](C(=O)N[C@@H](CCN)C(=O)NCCCCCCCCCCC(=O)O)NC(=O)[C@H](C(C)O)NC(=O)[C@H](C(C)C)NC(=O)[C@H](CC2CCCCC2)NC(=O)[C@H](CCN)NC1=O (stereo partly drawn) [Compound 3267] ({CH2CO}-[hArg]Y(Carboxymethyl)DWV[Bip]V[Orn][dL][Dab][Cha]V[Thr(3ξ)]C[Dab][Aun]-OH; thioether N-14) |
| 8 nM | Cc1cccc(C[C@@H]2NC(=O)[C@H](CC(=O)O)NC(=O)[C@H](Cc3ccc(OCC(=O)O)cc3)NC(=O)[C@H](CCCCNC(=N)N)NC(=O)CSC[C@@H](C(=O)N[C@@H](CCCN)C(=O)N[C@@H](CO)C(=O)NCCCCCCCCCCC(=O)O)NC(=O)[C@H](C(C)O)NC(=O)[C@H](C(C)C)NC(=O)[C@H](CC3CCCCC3)NC(=O)[C@H](CCN)NC(=O)[C@@H](CC(C)C)NC(=O)[C@H](CCCN)NC(=O)[C@H](C(C)C)NC(=O)[C@H](Cc3ccc(-c4ccccc4)cc3)NC(=O)[C@H](C(C)C)NC2=O)c1 (stereo partly drawn) [Compound 3268] ({CH2CO}-[hArg]Y(Carboxymethyl)D[Phe(3-Me)]V[Bip]V[Orn][dL][Dab][Cha]V[Thr(3ξ)]C[Orn]S[Aun]-OH; thioether N-14) |
| 65.5 nM | CC(C)C[C@H]1NC(=O)[C@H](CCCN)NC(=O)[C@H](C(C)C)NC(=O)[C@H](Cc2ccc(-c3ccccc3)cc2)NC(=O)[C@H](C(C)C)NC(=O)[C@H](Cc2c[nH]c3ccccc23)NC(=O)[C@H](CC(=O)O)NC(=O)[C@H](Cc2c[nH]cn2)NC(=O)[C@H](CCCCNC(=N)N)NC(=O)CSC[C@@H](C(=O)N[C@@H](CCN)C(=O)NCCCCCCCCCCC(=O)O)NC(=O)[C@H](CCN)NC(=O)[C@H](C(C)C)NC(=O)[C@H](CC2CCCCC2)NC(=O)[C@H](CCN)NC1=O [Compound 3269] ({CH2CO}-[hArg]HDWV[Bip]V[Orn][dL][Dab][Cha]V[Dab]C[Dab][Aun]-OH; thioether N-14) |
| 32 nM | CC(C)C[C@H]1NC(=O)[C@H](CCCN)NC(=O)[C@H](C(C)C)NC(=O)[C@H](Cc2ccc(-c3ccccc3)cc2)NC(=O)[C@H](C(C)C)NC(=O)[C@H](Cc2c[nH]c3ccccc23)NC(=O)[C@H](CC(=O)O)NC(=O)[C@H](Cc2c[nH]cn2)NC(=O)[C@H](CCCCNC(=N)N)NC(=O)CSC[C@@H](C(=O)N[C@@H](CCN)C(=O)NCCCCCCCCCCC(=O)O)NC(=O)[C@H](CCCCN)NC(=O)[C@H](C(C)C)NC(=O)[C@H](CC2CCCCC2)NC(=O)[C@H](CCN)NC1=O [Compound 3270] ({CH2CO}-[hArg]HDWV[Bip]V[Orn][dL][Dab][Cha]VKC[Dab][Aun]-OH; thioether N-14) |

Reference: patent publication US20260022142A1, “MACROCYCLIC IMMUNOMODULATORS” (Bristol-Myers Squibb Company, priority 2022, published 2026)
